# Values joined by “and” are separate entries in the source; they are usually repeats but may differ in a detail not shown here. Equal entries are not always repeated.
# Experiments:
# [1] = tested on: Pseudoperonospora cubensis (resistance to metalaxyl); settings: in vivo
# [2] = tested on: Peronospora tabacina R strain; experiment: Control of downy mildew in tobacco, fungal isolate R (sporulation inhibition); type: in vivo
# [3] = tested on: Peronospora tabacina S strain; experiment: Control of downy mildew in tobacco, fungal isolate S (sporulation inhibition); type: in vivo
# [4] = tested on: Plasmopara viticola; settings: in vivo
# [5] = 16 mg/L active ingredient, fungal isolate R, Table 29
# [6] = 62 mg/L active ingredient, fungal isolate R, Table 29
# [7] = 100 mg/L active ingredient, fungal isolate R, Table 30
# [8] = 200 mg/L active ingredient, fungal isolate R, Table 30
# [9] = 250 mg/L active ingredient, fungal isolate R, Table 29
# [10] = 400 mg/L active ingredient, fungal isolate R, Table 30
# [11] = 50 mg/L active ingredient, fungal isolate R, Table 28
# [12] = 0.5 mg/L active ingredient, tobacco, fungal isolate S (Table 31)
# [13] = 5 mg/L active ingredient, tobacco, fungal isolate S (Table 31)
# [14] = 50 mg/L active ingredient, tobacco, fungal isolate S (Table 31)
compound,measurement,setting,value
"COCC(=O)N(c1c(C)cccc1C)[C@H](C)C(=O)OC (single isomer, unassigned) [Metalaxyl Single Isomer]",ED90,[1],844 µg/mL
same,Percent Disease Control,[1],0% and 8%
COCC(=O)N(c1c(C)cccc1C)[C@H](C)C(=O)OC [RIDOMILGOLD],Percent Disease Control,[2]; [5],49%
same,Percent Disease Control,[2]; [6],37%
same,Percent Disease Control,[2]; [7],20%
same,Percent Disease Control,[2]; [8],35%
same,Percent Disease Control,[2]; [9],58%
same,Percent Disease Control,[2]; [10],42%
same,ED90,"[2]; fungal isolate R, Table 29",416 µg/mL
same,ED90,"[2]; fungal isolate R, Table 30",>1000 µg/mL
"CC(N)CC(=O)O (stereo not drawn) [BABA, DLβ-amino-butanoic acid]",Percent Disease Control,[2]; [5],3%
same,Percent Disease Control,[2]; [11],0%
same,Percent Disease Control,[2]; [6],27%
same,Percent Disease Control,"[2]; 100 mg/L active ingredient, fungal isolate R, Table 28",13%
same,Percent Disease Control,[2]; [7],37%
same,Percent Disease Control,"[2]; 200 mg/L active ingredient, fungal isolate R, Table 28",100%
same,Percent Disease Control,[2]; [8],62%
same,Percent Disease Control,[2]; [9],51%
same,Percent Disease Control,[2]; [10],100%
same,Percent Disease Control,[3]; [12],0%
same,Percent Disease Control,[3]; [13],27%
same,Percent Disease Control,[3]; [14],59%
same,ED90,[3]; in vivo,78 µg/mL
same,ED90,[4],38 µg/mL and 33 µg/mL and 36 µg/mL and 44 µg/mL
"O=C1c2ccccc2C(=O)N1SC(Cl)(Cl)Cl [FOLPET, Folpet]",ED90,[1],403 µg/mL
Cc1ccc(C(C)NC(=O)[C@@H](NC(=O)OC(C)C)C(C)C)cc1 (stereo partly shown) [Fencaramid],ED90,[1],19 µg/mL
same,Percent Disease Control,[1],78% and 83% and 95% and 100%
"CSC(=O)c1cccc2nnsc12 [BION, Acibenzolar-s-methyl]",Percent Disease Control,[2]; [5],76%
same,Percent Disease Control,[2]; [6],76%
same,Percent Disease Control,[2]; [7],37%
same,Percent Disease Control,[2]; [8],50%
same,Percent Disease Control,[2]; [9],99%
same,Percent Disease Control,[2]; [10],80%
same,ED90,"[2]; fungal isolate R, Table 29",88 µg/mL
same,ED90,"[2]; fungal isolate R, Table 30",443 µg/mL
same,Percent Disease Control,[3]; [12],54%
same,Percent Disease Control,[3]; [13],76%
same,Percent Disease Control,[3]; [14],85%
same,ED90,"[3]; tobacco, fungal isolate S (Table 31)",52 µg/mL
same,ED90,[4],6 µg/mL
Mancozeb,ED90,[1],315 µg/mL and 167 µg/mL
CCNC(=O)NC(=O)/C(C#N)=N/OC [Cymoxanil],Percent Disease Control,[2]; [7],25%
same,Percent Disease Control,[2]; [8],25%
same,Percent Disease Control,[2]; [10],62%
same,ED90,[2]; in vivo,596 µg/mL
"COc1ccc(C(=CC(=O)N2CCOCC2)c2ccc(Cl)cc2)cc1OC [DMN, DIMETHOMORPH]",Percent Disease Control,[1],32% Control
same,ED90,[4],19 µg/mL
"[Cu+2].[OH-].[OH-] [Cu(OH)2, copper hydroxide]",ED90,[1],304 µg/mL
same,Percent Disease Control,[1],67% and 77% and 80%
"CO/C=C(/C(=O)OC)c1ccccc1Oc1cc(Oc2ccccc2C#N)ncn1 [AZOXYSTROBINE, Azoxystrobin]",Percent Disease Control,"[2]; 5 mg/L active ingredient, fungal isolate R, Table 28",81%
same,Percent Disease Control,"[2]; 10 mg/L active ingredient, fungal isolate R, Table 28",81%
same,Percent Disease Control,"[2]; 25 mg/L active ingredient, fungal isolate R, Table 28",81%
same,Percent Disease Control,[2]; [11],93%
same,Percent Disease Control,"[2]; dose not printed (value stands in the Ratio column), fungal isolate R, Table 28",13%
same,ED90,"[2]; fungal isolate R, Table 28",27 µg/mL
